Reference: patent US20060051295A1, “Estrogen receptor interaction with a transcription factor” (priority 2002, published 2006)

What was measured:
IL-6 production = experiment: IL-6 secretion by U-2OS cells stably expressing ERα (sandwich ELISA); type: cell-based, human; conditions: U-2OS-ERα, IL-1β 125 pg/ml + IFNγ 10 ng/ml
Excerpt: Estrogens maintain the balance between bone resorption and formation by inhibiting the production of cytokines by osteoblasts that stimulate osteoclast activity and thus bone resorption. We analysed the relevance of ER NF-κB transrepression on IL-6 production in more depth. When the pre-osteoblast cell line U-2 OS was stimulated with cytokines such as IL-1β, production of endogenous IL-6 protein is increased. However, when U-2OS cells are also exposed to IL-1β and estrogens, the increased production of IL-6 is repressed [Table 8].
Numbers are luminescence in counts per sec reflecting IL-6 produced by the cells
Secretion of endogenously produced IL-6 was measured by sandwich ELISA as outlined in Material and Methods.
For studying repression of human IL-6 secreted by U-2 OS cells that stably overexpress ERα (U-2 OS-ERα cells) a standard sandwich ELISA was used (ELISA kit of R&D systems #DY206). Cells were plated in 24 or 96 wells plates in M505+dextran-coated charcoal stripped serum (i.e. 10% BCTS) and allowed to grow to 90% confluency.
ELISA was performed according to the protocol of the manufacturer and as briefly described below. After overnight incubation of the cells with compounds in the appropriate concentration, the supernatants were transferred to 96 wells plates that had been coated overnight with anti-IL-6 capture antibody. Captured IL-6 was subsequently detected using a biotinylated anti-IL-6 detection antibody and Streptavidin-AP. Il-6 concentrations per well were subsequently quantified using the chemoluminescent substrate CSPD (Elisa-Light™, #EL100CY, Tropix), after which luminescence was determined in a Victor multilabel counter (Wallac).

[1] = tested on: E-selectin (ELAM) gene expression; experiment: Rabbit atherogenic diet model, E-selectin mRNA in aorta bow (RNase protection)
cRel + ER beta = experiment: Transrepression of c-Rel induced reporters, U-2 OS co-transfected with ERβ; type: cell-based, human
Method: Next was determined whether transrepression by ER is limited to particular NF-κB types, such as c-Rel or RelA, by overexpression of these NF-κB proteins in U-2 OS cells (Table 2). Again, the promoter-reporter constructs for the E-selectin, ICAM and VCAM genes were used in these experiments. Significant activation of these reporters by overexpression of c-Rel was observed. This activation was strongly and reproducibly transrepressed by both ERα and ERβ (Table 2).
Table 2. Estrogen-dependent transrepression of the promoters from E-selectin, VCAM and ICAM and a synthetic NF-κB responsive reporter, measured as the amount of luciferase activity. Transient (co-)transfections of ERα (or ERβ) and reporter were performed in U-2 OS cells. Reporter activity was induced by cellular exposure to Il-1β or by co-transfection of the NF-κB genes c-Rel or RelA. […] For detailed information on the composition of the reporters used, see appendix 1. The hyphen (-) in the table indicates the test with cells without transfected cDNA and no additives in medium; n.d. means: not determined.
For transient transfections, cells were seeded in 6-well plates (2.10^5 cells/well). After two or three days the cells were transfected with reporter, expression vectors and β-galactosidase control vector. Two different experimental settings were used. For testing transrepression of IL-1β induced promoter activity, cells were transfected with 1 μg reporter construct, 1 μg expression vector (containing either ERα, ERβ or GR), and 0.25 μg of β-galactosidase control plasmid. For testing transrepression in combination with c-Rel or ReLA overexpression, cells were transfected with 1 μg reporter construct, 1 μg expression vector (containing either ERα, ERβ or GR) and 0.1 or 1.0 μg expression vector containing c-Rel or RelA and 0.25 μg of β-galactosidase control vector. Equivalent amounts of DNA were obtained by adding the appropriate expression vector that lacks an insert. Transient transfection was performed using lipofectin reagent (Life Technologies). […] The transfected cells were incubated overnight with test compounds prior to cell lysis. Measurement of luciferase and P-galactosidase activity were performed using respectively the luciferase assay system (Promega) and Galacto-light plus (Tropix) according to the manufacturers' protocols and measured on the Victor 1420 multilabel counter, Wallac. Detection of β-galactosidase activity was used as a control for transfection efficiency.

SMILES: C[C@]12CC[C@@H]3c4ccc(O)cc4CC[C@H]3[C@@H]1CC[C@@H]2O [Org E2, 17β-estradiol]
- Il-6 production (luminescence) (IL-6 production; E2 0.001 nM): 136039 counts per sec
- Il-6 production (luminescence) (IL-6 production; E2 0.01 nM): 79230 counts per sec
- Il-6 production (luminescence) (IL-6 production; E2 0.1 nM): 50375 counts per sec
- Il-6 production (luminescence) (IL-6 production; E2 1 nM): 41070 counts per sec
- ELAM mRNA level (RNase protection, divided by GAPDH signal) ([1]; diet 2 weeks, 4 hours after 3 μg/kg s.c.): 0
- ELAM mRNA level (RNase protection, divided by GAPDH signal) ([1]; diet 2 weeks, 12 hours after 3 μg/kg s.c.): 0.0003897
- ELAM mRNA level (RNase protection, divided by GAPDH signal) ([1]; diet 4 weeks, 12 hours after 3 μg/kg s.c.): 0
- ELAM mRNA level (RNase protection, divided by GAPDH signal) ([1]; diet 8 weeks, 4 hours after 3 μg/kg s.c.): 0.0006813
- ELAM mRNA level (RNase protection, divided by GAPDH signal) ([1]; diet 18 weeks, 4 hours after 3 μg/kg s.c.): 0.002788
- ELAM mRNA level (RNase protection, divided by GAPDH signal) ([1]; diet 18 weeks, 12 hours after 3 μg/kg s.c.): 0.0008307
- luciferase activity, ELAM+ reporter (cRel + ER beta): 3708
- luciferase activity, ELAM− reporter (cRel + ER beta): 1495
- luciferase activity, ICAM reporter (cRel + ER beta): 1611
- luciferase activity, VCAM reporter (cRel + ER beta): 882
